Source: patent publication US11684623B2, “Soluble melatonin tripartate adduct for the prevention and treatment of rare and severe eye sight-threatening conditions and neuro-ophthalmic disorders” (WORPHMED SRL, priority 2020, dated 2023)

Assay: Solubility in water according to USP and EP
Assay type: physicochemical
Source text: wherein melatonin is complexed with adenosine and glycine. Adenosine is a purine nucleoside consisting of adenine attached to a ribofuranose moiety via a β-N9-glycosidic bond and the low-chain amino acid glycine is a C2 amino acid having a single hydrogen atom as its side chain.

- Solubility in water, Results: 0.1 mg/1.0 ml
SMILES: COc1ccc2[nH]cc(CCNC(C)=O)c2c1 [melatonin, N-acetyl-5-methoxytryptamine]
